Tested on: human NKT cells
Experiment: XCL1 secretion from human NKT cells (ELISA)
Format: cell-based
Settings: human NKT cell, FIG. 18
Method: Briefly, to generate human NKT cells the buffy coats from human donors' peripheral blood were obtained from RESEARCH BLOOD COMPONENTS LLC and separated using differential centrifugation on a FICOLL density gradient. Magnetically Isolated CD14^neg cells were cultured with 10 U/ml rhIL-2 for 5 days. Then, Vα24^+ hNKT cells were magnetically isolated and incubated for 2 days with mitomycin C-treated human dendritic cells loaded with α-galactosylceramide (α-GalCer)+20 U/ml rhIL-2. Then, the cells were harvested and further expanded for 10 days in complete RPMI medium+20 U/ml rhIL-2, with medium replacement every 2 days. Finally, the purity of Vα24Jα18^+ CD3^+ human NKT cells was estimated using flow cytometry (˜99%) and cells were frozen in complete RPMI medium+10% dimethyl sulfoxide (DMSO) at 5×10^6 cells per vial. For assaying the effect of M. schaedleri supernatant on human NKT cells, frozen cells were thawed and cultured in complete RPMI medium+rhIL-2 at cell density of 200,000 cells per well in a 96-well plate. The cells were treated with either sterile mBHI or M. schaedleri CDM at 20% volume per volume (v/v) for 16 h and then the culture supernatant was collected. As a positive control for activation, anti-human CD3 was used to stimulate the NKT cells. XCL1 concentration was measured using ONESTEP HUMAN XCL1 ELISA (ABCAM) according to the manufacturer's instructions. […]

**Q.** For `O=C(O)c1cccnc1` [Pool 3, nicotinic acid], which “NKT XCL1 production, metabolite pools” value is on record?
**A.** activity above that of the medium control
